These results are taken from PubChem BioAssay (NCI).

Test systems include 786-0 renal; A498 renal; CCRF-CEM leukemia; DU-145 prostate; HCT-15 colon; HOP-62 NSCLC; HOP-92 NSCLC; HS 578T breast; K-562 leukemia; MOLT-4 leukemia; NCI-H226 lung; PC-3 prostate; RXF 393 renal; SF-268 CNS; SF-539 CNS; SK-OV-3 ovarian; T-47D breast; TK-10 renal; UACC-257 melanoma.
Holding throughout (test): NCI-60 cell line screen, 48 h

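Compound exposure: 48 hours, 5 concentrations, 96-well plates. The concentration for full growth arrest is given as TGI.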

Take `CNc1ccc(Cl)cc1C(=O)N1CCC[C@H]1CO`: the TGI in the test on 786-0 renal, in the test with A498 renal, in the test with CCRF-CEM leukemia, with DU-145 prostate, in the test with HCT-15 colon and in the test with HOP-62 NSCLC was more than 100 µM in each case. In addition, the TGI in the test on HOP-92 NSCLC, in the test on HS 578T breast, with K-562 leukemia, in the test on MOLT-4 leukemia, in the test on NCI-H226 lung and in the test on PC-3 prostate was more than 100 µM in each case. Moreover, the TGI in the test with RXF 393 renal, with SF-268 CNS, in the test with SF-539 CNS, in the test with SK-OV-3 ovarian, with T-47D breast and with TK-10 renal was more than 100 µM in each case. Moreover, the TGI in the test on UACC-257 melanoma was more than 100 µM.

Consider `CC(=S)NC=C(C(N)=O)C(N)=O`, for which the TGI in the test with 786-0 renal, in the test on A498 renal, with CCRF-CEM leukemia, with DU-145 prostate, with HCT-15 colon and with HOP-62 NSCLC was more than 100 µM each time. In addition, the TGI in the test with HOP-92 NSCLC, in the test on HS 578T breast, in the test with K-562 leukemia, in the test with MOLT-4 leukemia, with NCI-H226 lung and with PC-3 prostate was more than 100 µM throughout. The TGI in the test with RXF 393 renal, with SF-268 CNS, in the test with SF-539 CNS, in the test with SK-OV-3 ovarian, with T-47D breast and in the test on UACC-257 melanoma was more than 100 µM throughout.

With `O=C1CCCc2cc3c(cc21)CC1(C3)Cc2cc3c(cc2C1)C(=O)CCC3`, the TGI was 64.8 µM in the test with 786-0 renal; 53.6 µM in the test with A498 renal; more than 34.2 µM in the test on CCRF-CEM leukemia; 19 µM in the test with DU-145 prostate; more than 59.6 µM in the test on HCT-15 colon; more than 63.2 µM with HOP-62 NSCLC. The TGI was 82.1 µM in the test with HOP-92 NSCLC; more than 100 µM in the test on HS 578T breast; more than 42.2 µM in the test on K-562 leukemia; more than 43.1 µM in the test with MOLT-4 leukemia; 23.4 µM in the test on NCI-H226 lung; more than 100 µM with PC-3 prostate. For the same compound, the TGI was more than 29.3 µM in the test on RXF 393 renal; more than 100 µM in the test with SF-268 CNS; 5.85 µM with SF-539 CNS; more than 44.7 µM in the test with SK-OV-3 ovarian; more than 100 µM in the test with T-47D breast; 43.1 µM with TK-10 renal. For the same compound, the TGI with UACC-257 melanoma was 31.2 µM.

Consider `O=C(Cc1ccccc1)Nc1nc2ccc(Cl)cc2c2nc(-c3ccco3)nn12`, for which the TGI with 786-0 renal was more than 100 µM; with A498 renal it was more than 100 µM; in the test with CCRF-CEM leukemia, more than 100 µM; in the test with DU-145 prostate it was more than 100 µM; in the test on HCT-15 colon, more than 100 µM; with HOP-62 NSCLC, more than 62.4 µM. In addition, the TGI with HOP-92 NSCLC was 57.1 µM; with HS 578T breast it was more than 100 µM; in the test with K-562 leukemia, more than 100 µM; in the test with MOLT-4 leukemia it was more than 100 µM; in the test on NCI-H226 lung, more than 82.7 µM; with PC-3 prostate, more than 100 µM. Further, the TGI was 59.7 µM in the test on RXF 393 renal; more than 100 µM with SF-268 CNS; more than 60.5 µM with SF-539 CNS; more than 100 µM in the test on SK-OV-3 ovarian; more than 100 µM with T-47D breast; more than 75.3 µM in the test with TK-10 renal. The compound also returned a TGI in the test with UACC-257 melanoma of more than 100 µM.

Consider `COc1ccc(N2C(=O)C3c4[nH]c5ccc(OC)cc5c4C4CCC(c5ccccc5)CC4C3C2=O)cc1` (configuration not stated), for which the TGI with 786-0 renal was 12.2 µM; in the test on A498 renal, 37.4 µM; in the test with CCRF-CEM leukemia, 10.3 µM; with DU-145 prostate, more than 100 µM; in the test on HCT-15 colon, more than 100 µM; in the test on HOP-62 NSCLC it was 20.8 µM. Also, the TGI is 35.9 µM in the test on HOP-92 NSCLC; 12.7 µM in the test with HS 578T breast; more than 43.9 µM in the test on K-562 leukemia; 16.9 µM in the test on MOLT-4 leukemia; more than 100 µM in the test with NCI-H226 lung; more than 75.7 µM in the test on PC-3 prostate. The TGI is 25 µM in the test with RXF 393 renal; more than 46.6 µM in the test on SF-268 CNS; 13.9 µM in the test on SF-539 CNS; 26.1 µM in the test with SK-OV-3 ovarian; 86.3 µM in the test with T-47D breast; more than 57.7 µM in the test with TK-10 renal. Besides, the TGI in the test with UACC-257 melanoma was more than 88.9 µM.

Take `O=C(c1ccccc1)N1CCC(Nc2cccnc2)O1` (configuration not stated): the TGI in the test on 786-0 renal, in the test with A498 renal, with CCRF-CEM leukemia, with DU-145 prostate, in the test on HCT-15 colon and in the test on HOP-62 NSCLC was more than 100 µM in each case. The TGI in the test on HOP-92 NSCLC, in the test on HS 578T breast, with K-562 leukemia, in the test on MOLT-4 leukemia, in the test with NCI-H226 lung and with PC-3 prostate was more than 100 µM throughout. The TGI with RXF 393 renal, in the test with SF-268 CNS, in the test with SF-539 CNS, in the test with SK-OV-3 ovarian, in the test on T-47D breast and with TK-10 renal was more than 100 µM each time.

As to `NC(=S)NN=C1Cc2ccccc2C1`, the TGI with 786-0 renal, with A498 renal, in the test on CCRF-CEM leukemia, in the test on DU-145 prostate, in the test with HCT-15 colon and in the test on HOP-62 NSCLC was more than 100 µM in each case. Moreover, the TGI with HOP-92 NSCLC, in the test on HS 578T breast, with K-562 leukemia, with MOLT-4 leukemia, in the test with NCI-H226 lung and in the test with PC-3 prostate was more than 100 µM each time. For the same compound, the TGI in the test with RXF 393 renal, with SF-268 CNS, in the test on SF-539 CNS, in the test with SK-OV-3 ovarian, in the test on T-47D breast and in the test with TK-10 renal was more than 100 µM each time. Moreover, the TGI in the test with UACC-257 melanoma was more than 100 µM.

For `CCCCCCCCCCCCCC/C(C(=O)O)=C(\C)C(=O)O`, the TGI in the test with 786-0 renal, in the test on A498 renal, in the test on CCRF-CEM leukemia, with DU-145 prostate, in the test on HCT-15 colon and with HOP-62 NSCLC was more than 100 µM each time. The TGI in the test with HOP-92 NSCLC, with HS 578T breast, in the test with K-562 leukemia, in the test on MOLT-4 leukemia, in the test with NCI-H226 lung and with PC-3 prostate was more than 100 µM throughout. Also, the TGI with RXF 393 renal, in the test with SF-268 CNS, in the test on SF-539 CNS, with SK-OV-3 ovarian, in the test on T-47D breast and in the test with TK-10 renal was more than 100 µM throughout. Further, in the test with UACC-257 melanoma, the TGI is more than 100 µM.

Consider `CCOC(=O)n1ccc2c(C(=O)OC)c(C(=O)OC)cc(/C(=C/C(=O)OC)C(=O)OC)c21`, for which the TGI in the test with 786-0 renal, with A498 renal, in the test with CCRF-CEM leukemia, with DU-145 prostate, in the test with HOP-62 NSCLC and with HOP-92 NSCLC was more than 100 µM throughout. The TGI with HS 578T breast, with K-562 leukemia, with MOLT-4 leukemia, in the test with NCI-H226 lung, with PC-3 prostate and with RXF 393 renal was more than 100 µM each time. The TGI in the test with SF-268 CNS, in the test on SF-539 CNS, in the test on SK-OV-3 ovarian, in the test with T-47D breast, in the test on TK-10 renal and with UACC-257 melanoma was more than 100 µM each time.

Turning to `C/C(=N\NC(N)=S)C(CN1CCCCC1)C(C1=C(O)c2ccccc2OC1)c1ccccc1` (configuration not stated), the TGI in the test with 786-0 renal, with A498 renal, in the test with CCRF-CEM leukemia, in the test on DU-145 prostate, in the test with HCT-15 colon and with HOP-62 NSCLC was more than 100 µM throughout. Further, the TGI with HOP-92 NSCLC, with HS 578T breast, in the test on MOLT-4 leukemia, with NCI-H226 lung, with PC-3 prostate and with RXF 393 renal was more than 100 µM each time. Also, the TGI with SF-268 CNS, in the test with SF-539 CNS, in the test with SK-OV-3 ovarian, in the test with T-47D breast, in the test with TK-10 renal and in the test on UACC-257 melanoma was more than 100 µM each time.

`Oc1cc(F)cc2cccnc12`: the TGI in the test with 786-0 renal was more than 100 µM; in the test on A498 renal it was more than 68.1 µM; in the test with CCRF-CEM leukemia it was 0.656 µM; with DU-145 prostate, more than 100 µM; with HCT-15 colon it was more than 100 µM; in the test on HOP-62 NSCLC, more than 100 µM. The TGI with HOP-92 NSCLC was 3.1 µM; in the test on HS 578T breast it was more than 100 µM; in the test with K-562 leukemia, 1.15 µM; with MOLT-4 leukemia, 1.97 µM; in the test with NCI-H226 lung it was more than 100 µM; in the test with PC-3 prostate, more than 100 µM. Moreover, the TGI in the test with RXF 393 renal is 46.4 µM; in the test with SF-539 CNS, 30 µM; with SK-OV-3 ovarian, more than 100 µM; in the test on T-47D breast, more than 74.7 µM; in the test on TK-10 renal it was more than 100 µM; in the test with UACC-257 melanoma it was 4.29 µM.

For the compound `Cc1ccc(C2SCc3nc4ccccc4n32)cc1` (configuration not stated), the TGI is more than 100 µM with 786-0 renal; 9.04 µM with A498 renal; more than 100 µM in the test on CCRF-CEM leukemia; more than 100 µM with DU-145 prostate; 23.7 µM in the test with HOP-62 NSCLC; 70 µM in the test on HOP-92 NSCLC. In addition, the TGI in the test on HS 578T breast amounted to 7.17 µM; in the test with K-562 leukemia, 14.8 µM; in the test on MOLT-4 leukemia it was 15.3 µM; with NCI-H226 lung it was 6.55 µM; in the test with PC-3 prostate it was 21.2 µM; in the test on RXF 393 renal, 6.33 µM. Besides, the TGI in the test on SF-268 CNS was more than 100 µM; with SF-539 CNS it was 5.47 µM; in the test with SK-OV-3 ovarian, 85.8 µM; in the test on T-47D breast it was more than 100 µM; with TK-10 renal, 25.1 µM; with UACC-257 melanoma, 68.3 µM.
